Source: paper PMC5218480 (PLoS ONE, 2017)

Tested on: MV-4-11 cells
Assay: Gene expression microarray analysis (Affymetrix PrimeView) and GSEA
Type: cell-based, human
Set-up: RFU PODN (11730768_x_at) / Fold change /veh PODN (11730768_x_at) / RFU LINC00158 (11744669_a_at) / Fold change /veh LINC00158 (11744669_a_at) / RFU DUSP10 (11751237_a_at) / Fold change /veh DUSP10 (11751237_a_at) / RFU ID3 (11757404_x_at) / Fold change /veh ID3 (11757404_x_at) / RFU PLEKHG5 (11737974_s_at) / Fold change /veh PLEKHG5 (11737974_s_at) / RFU LRRC4B (11730491_at) / Fold change /veh LRRC4B (11730491_at) / RFU GIMAP4 (11747438_a_at) / Fold change /veh GIMAP4 (11747438_a_at) / RFU KRT8 (11758183_x_at) / Fold change /veh KRT8 (11758183_x_at) / RFU CNN1 (11734310_a_at) / Fold change /veh CNN1 (11734310_a_at) / RFU VPS37D (11726825_at) / Fold change /veh VPS37D (11726825_at) / RFU C10orf10 (11716522_x_at) / Fold change /veh C10orf10 (11716522_x_at) / RFU KIR2DL2 /// KIR2DL4 /// KIR2DL5A /// KIR2DL5B /// KIR2DS1 /// KIR2DS2 /// KIR2DS3 /// KIR2DS4 /// KIR3DL3 /// KIR3DL3 /// KIR3DS1 (11738374_at) / Fold change /veh KIR2DL2 /// KIR2DL4 /// KIR2DL5A /// KIR2DL5B /// KIR2DS1 /// KIR2DS2 /// KIR2DS3 /// KIR2DS4 /// KIR3DL3 /// KIR3DL3 /// KIR3DS1 (11738374_at) / RFU C1QL1 (11718748_at) / Fold change /veh C1QL1 (11718748_at) / RFU TMPRSS4 (11747572_a_at) / Fold change /veh TMPRSS4 (11747572_a_at) / RFU HAMP (11756126_x_at) / Fold change /veh HAMP (11756126_x_at) / RFU RNFT2 (11725882_a_at) / Fold change /veh RNFT2 (11725882_a_at) / RFU NR4A2 (11747474_a_at) / Fold change /veh NR4A2 (11747474_a_at) / RFU ABCC12 (11746883_a_at) / Fold change /veh ABCC12 (11746883_a_at) / RFU TMEM136 (11760407_x_at) / Fold change /veh TMEM136 (11760407_x_at) / RFU CLDN22 /// WWC2 (11732394_at) / Fold change /veh CLDN22 /// WWC2 (11732394_at) / RFU HLA-DPB1 (11760878_x_at) / Fold change /veh HLA-DPB1 (11760878_x_at) / RFU SPINT1 (11716480_a_at) / Fold change /veh SPINT1 (11716480_a_at) / RFU GAP43 (11754022_s_at) / Fold change /veh GAP43 (11754022_s_at) / RFU A4GNT (11735810_at) / Fold change /veh A4GNT (11735810_at) / RFU PRB3 (11715151_x_at) / Fold change /veh PRB3 (11715151_x_at) / RFU TUBB4B (11761932_at) / Fold change /veh TUBB4B (11761932_at) / RFU CAPN14 (11732068_a_at) / Fold change /veh CAPN14 (11732068_a_at) / RFU TMCC2 (11721928_a_at) / Fold change /veh TMCC2 (11721928_a_at) / RFU IRGQ (11745062_a_at) / Fold change /veh IRGQ (11745062_a_at) / RFU FAM174B (11720279_a_at) / Fold change /veh FAM174B (11720279_a_at) / RFU TMPRSS4 (11748680_a_at) / Fold change /veh TMPRSS4 (11748680_a_at) / RFU FAM212B (11763350_a_at) / Fold change /veh FAM212B (11763350_a_at) / RFU PLEKHG5 (11743358_a_at) / Fold change /veh PLEKHG5 (11743358_a_at) / RFU ZSCAN30 (11745921_a_at) / Fold change /veh ZSCAN30 (11745921_a_at) / RFU CMKLR1 (11741424_a_at) / Fold change /veh CMKLR1 (11741424_a_at) / RFU LOC101060620 /// MAPK8IP1 (11723275_at) / Fold change /veh LOC101060620 /// MAPK8IP1 (11723275_at) / RFU SPTSSB (11747773_x_at) / Fold change /veh SPTSSB (11747773_x_at) / RFU PRSS12 (11739890_at) / Fold change /veh PRSS12 (11739890_at) / RFU BIN1 (11741810_x_at) / Fold change /veh BIN1 (11741810_x_at) / RFU WNT11 (11732464_a_at) / Fold change /veh WNT11 (11732464_a_at) / RFU C10orf10 (11716521_a_at) / Fold change /veh C10orf10 (11716521_a_at) / RFU C5orf56 (11738089_at) / Fold change /veh C5orf56 (11738089_at) / RFU CYB561 (11721691_x_at) / Fold change /veh CYB561 (11721691_x_at) / RFU ANKRD19P (11752326_a_at) / Fold change /veh ANKRD19P (11752326_a_at) / RFU OR2T12 /// OR2T33 /// OR2T8 (11738714_s_at) / Fold change /veh OR2T12 /// OR2T33 /// OR2T8 (11738714_s_at) / RFU VCAN (11748164_a_at) / Fold change /veh VCAN (11748164_a_at) / RFU JSRP1 (11732532_at) / Fold change /veh JSRP1 (11732532_at) / RFU KRTAP10-11 (11738290_x_at) / Fold change /veh KRTAP10-11 (11738290_x_at) / RFU MYO3A (11730013_a_at) / Fold change /veh MYO3A (11730013_a_at) / RFU EBF3 (11725865_a_at) / Fold change /veh EBF3 (11725865_a_at) / RFU CAMK2N1 (11719241_x_at) / Fold change /veh CAMK2N1 (11719241_x_at) / RFU C5orf56 (11738088_a_at) / Fold change /veh C5orf56 (11738088_a_at) / RFU OLFML3 (11715873_a_at) / Fold change /veh OLFML3 (11715873_a_at) / RFU LOC100653217 /// NTM (11731650_a_at) / Fold change /veh LOC100653217 /// NTM (11731650_a_at) / RFU MAPK11 (11762145_a_at) / Fold change /veh MAPK11 (11762145_a_at) / RFU FIZ1 (11724087_x_at) / Fold change /veh FIZ1 (11724087_x_at) / RFU OASL (11726364_x_at) / Fold change /veh OASL (11726364_x_at) / RFU SOX15 (11748057_x_at) / Fold change /veh SOX15 (11748057_x_at) / RFU CD79A (11719716_a_at) / Fold change /veh CD79A (11719716_a_at) / RFU HIST1H1D (11736915_at) / Fold change /veh HIST1H1D (11736915_at) / RFU CASKIN2 (11723855_a_at) / Fold change /veh CASKIN2 (11723855_a_at) / RFU LOC730098 (11760151_x_at) / Fold change /veh LOC730098 (11760151_x_at) / RFU OR4N2 (11742367_at) / Fold change /veh OR4N2 (11742367_at) / RFU PRRT2 (11749266_a_at) / Fold change /veh PRRT2 (11749266_a_at) / RFU SNX32 (11753110_a_at) / Fold change /veh SNX32 (11753110_a_at) / RFU CDHR5 (11726645_a_at) / Fold change /veh CDHR5 (11726645_a_at) / RFU RCAN1 (11760418_a_at) / Fold change /veh RCAN1 (11760418_a_at) / RFU FAM167A (11723789_a_at) / Fold change /veh FAM167A (11723789_a_at) / RFU FAM26E (11764081_at) / Fold change /veh FAM26E (11764081_at) / RFU ISYNA1 (11749810_s_at) / Fold change /veh ISYNA1 (11749810_s_at) / RFU ACY1 (11761880_at) / Fold change /veh ACY1 (11761880_at) / RFU 11764098_at / Fold change /veh 11764098_at / RFU SAMD14 (11745864_x_at) / Fold change /veh SAMD14 (11745864_x_at) / RFU NPB (11741838_a_at) / Fold change /veh NPB (11741838_a_at) / RFU TMPRSS6 (11731388_a_at) / Fold change /veh TMPRSS6 (11731388_a_at) / RFU KRTAP10-2 (11738614_at) / Fold change /veh KRTAP10-2 (11738614_at) / RFU ARHGAP8 /// PRR5-ARHGAP8 (11727945_x_at) / Fold change /veh ARHGAP8 /// PRR5-ARHGAP8 (11727945_x_at) / RFU KRTAP5-7 /// NADSYN1 (11734609_at) / Fold change /veh KRTAP5-7 /// NADSYN1 (11734609_at) / RFU RASL12 (11751679_a_at) / Fold change /veh RASL12 (11751679_a_at) / RFU CDKN2B (11736163_a_at) / Fold change /veh CDKN2B (11736163_a_at) / RFU PRF1 (11729649_at) / Fold change /veh PRF1 (11729649_at) / RFU, ZNF638 /// ZNF638-IT1 / Fold change vs veh, ZNF638 /// ZNF638-IT1 / RFU, PANK3 / Fold change vs veh, PANK3 / RFU, SH3YL1 / Fold change vs veh, SH3YL1 / RFU, ZEB2 / Fold change vs veh, ZEB2 / RFU, NRIP1 / Fold change vs veh, NRIP1 / RFU, PTTG1IP / Fold change vs veh, PTTG1IP / RFU, CAPN2 / Fold change vs veh, CAPN2 / RFU, MED14 / Fold change vs veh, MED14 / RFU, SNORA58 / Fold change vs veh, SNORA58 / RFU, C1orf63 / Fold change vs veh, C1orf63 / RFU, LRRFIP1 / Fold change vs veh, LRRFIP1 / RFU, NDUFAF7 / Fold change vs veh, NDUFAF7 / RFU, SLC12A2 / Fold change vs veh, SLC12A2 / RFU, IBTK / Fold change vs veh, IBTK / RFU, ESF1 / Fold change vs veh, ESF1 / Fold change vs veh, TMEM50B / RFU, TAOK1 / Fold change vs veh, TAOK1 / RFU, ACBD3 / Fold change vs veh, ACBD3 / RFU, TMA16 / Fold change vs veh, TMA16 / RFU, RWDD3 / Fold change vs veh, RWDD3 / RFU, BCAT1 / Fold change vs veh, BCAT1 / RFU, EDEM3 / Fold change vs veh, EDEM3 / RFU, TMEM33 / Fold change vs veh, TMEM33 / RFU, WDR75 / Fold change vs veh, WDR75 / RFU, AHCTF1 / Fold change vs veh, AHCTF1 / RFU, TFRC / Fold change vs veh, TFRC / RFU, ZDHHC17 / Fold change vs veh, ZDHHC17 / RFU, NOM1 / Fold change vs veh, NOM1 / RFU, ARL8B / Fold change vs veh, ARL8B / RFU, ZBTB11 / Fold change vs veh, ZBTB11 / RFU, TAMM41 / Fold change vs veh, TAMM41 / RFU, KIAA1704 /// LOC100996395 / Fold change vs veh, KIAA1704 /// LOC100996395 / RFU, ING1 / Fold change vs veh, ING1 / RFU, TRMT61B / Fold change vs veh, TRMT61B / RFU, FUBP3 / Fold change vs veh, FUBP3 / RFU, TP53 / Fold change vs veh, TP53 / RFU, TNKS2 / Fold change vs veh, TNKS2 / RFU, ZFP14 / Fold change vs veh, ZFP14 / RFU, ACTR2 / Fold change vs veh, ACTR2 / RFU, PPP3R1 / Fold change vs veh, PPP3R1 / RFU, PIK3R1 / Fold change vs veh, PIK3R1 / RFU, HNRNPA1 / Fold change vs veh, HNRNPA1 / RFU, RNF170 / Fold change vs veh, RNF170 / RFU, ZNF28 / Fold change vs veh, ZNF28 / RFU, RNGTT / Fold change vs veh, RNGTT / RFU, OGT / Fold change vs veh, OGT / RFU, BRD1 / Fold change vs veh, BRD1 / RFU, MARS / Fold change vs veh, MARS / RFU, ZNF655 / Fold change vs veh, ZNF655 / RFU, FAHD1 / Fold change vs veh, FAHD1 / RFU, BDP1 / Fold change vs veh, BDP1 / RFU, LRRCC1 / Fold change vs veh, LRRCC1 / RFU, ARID1A / Fold change vs veh, ARID1A / RFU, ZNF146 / Fold change vs veh, ZNF146 / RFU, ZNF330 / Fold change vs veh, ZNF330 / RFU, GPN3 / Fold change vs veh, GPN3 / RFU, C9orf123 / Fold change vs veh, C9orf123 / RFU, N4BP2L2 / Fold change vs veh, N4BP2L2 / RFU, ARFIP1 / Fold change vs veh, ARFIP1 / RFU, FAM179B / Fold change vs veh, FAM179B / RFU, BCL10 / Fold change vs veh, BCL10 / RFU, UHRF1BP1L / Fold change vs veh, UHRF1BP1L / RFU, BET1 / Fold change vs veh, BET1 / RFU, CNOT2 / Fold change vs veh, CNOT2 / RFU, ZNF268 / Fold change vs veh, ZNF268 / Fold change vs veh, ZNF507 / RFU, DGCR2 / Fold change vs veh, DGCR2 / RFU, WDSUB1 / Fold change vs veh, WDSUB1 / Fold change vs veh, HSP90B1 /// MIR3652 / RFU, ADSS / Fold change vs veh, ADSS / RFU, GK / Fold change vs veh, GK / RFU, ZNF148 / Fold change vs veh, ZNF148 / RFU, TAF9 / Fold change vs veh, TAF9 / RFU, SLC1A5 / Fold change vs veh, SLC1A5 / RFU, SLMO2 / Fold change vs veh, SLMO2 / RFU, ABCC4 / Fold change vs veh, ABCC4 / RFU, LOC101060439 /// RAP1B / Fold change vs veh, LOC101060439 /// RAP1B / RFU, RFX7 / Fold change vs veh, RFX7 / RFU, GTPBP10 / Fold change vs veh, GTPBP10 / RFU, CNEP1R1 / Fold change vs veh, CNEP1R1 / RFU, BIVM-ERCC5 /// ERCC5 / Fold change vs veh, BIVM-ERCC5 /// ERCC5 / RFU, ILF3 / Fold change vs veh, ILF3 / RFU 11762660_at / Fold change /veh 11762660_at / RFU VCAN (11757783_s_at) / Fold change /veh VCAN (11757783_s_at) / RFU DDX43 (11728927_at) / Fold change /veh DDX43 (11728927_at) / RFU KRT8 (11758188_x_at) / Fold change /veh KRT8 (11758188_x_at) / RFU NKD1 (11759106_at) / Fold change /veh NKD1 (11759106_at) / RFU SRD5A1 (11742802_a_at) / Fold change /veh SRD5A1 (11742802_a_at) / RFU TPSAB1 /// TPSB2 (11721975_s_at) / Fold change /veh TPSAB1 /// TPSB2 (11721975_s_at) / RFU GSTM3 (11746129_a_at) / Fold change /veh GSTM3 (11746129_a_at) / RFU IL23R (11737362_x_at) / Fold change /veh IL23R (11737362_x_at) / RFU TMEM51 (11727254_a_at) / Fold change /veh TMEM51 (11727254_a_at) / RFU PIWIL2 (11732686_x_at) / Fold change /veh PIWIL2 (11732686_x_at) / RFU ORM1 (11744905_x_at) / Fold change /veh ORM1 (11744905_x_at) / RFU CCDC152 (11743942_at) / Fold change /veh CCDC152 (11743942_at) / RFU ECM1 (11717891_a_at) / Fold change /veh ECM1 (11717891_a_at) / RFU IL23R (11748794_a_at) / Fold change /veh IL23R (11748794_a_at) / RFU TNFAIP8L3 (11732012_x_at) / Fold change /veh TNFAIP8L3 (11732012_x_at) / RFU MBOAT4 (11741988_at) / Fold change /veh MBOAT4 (11741988_at) / RFU 11764193_at / Fold change /veh 11764193_at / RFU TMEM53 (11763286_at) / Fold change /veh TMEM53 (11763286_at) / RFU MAGEB2 (11727129_at) / Fold change /veh MAGEB2 (11727129_at) / RFU TMEM200A (11744735_a_at) / Fold change /veh TMEM200A (11744735_a_at) / RFU CCDC152 (11751479_a_at) / Fold change /veh CCDC152 (11751479_a_at) / RFU FAM211A (11726209_a_at) / Fold change /veh FAM211A (11726209_a_at) / RFU RGS16 (11746705_a_at) / Fold change /veh RGS16 (11746705_a_at) / RFU VCAN (11755009_s_at) / Fold change /veh VCAN (11755009_s_at) / RFU RHOB (11743442_s_at) / Fold change /veh RHOB (11743442_s_at) / RFU RGS16 (11720943_a_at) / Fold change /veh RGS16 (11720943_a_at) / RFU RGS16 (11720944_at) / Fold change /veh RGS16 (11720944_at) / RFU, VPS4B / Fold change vs veh, VPS4B / RFU, CREB1 / Fold change vs veh, CREB1 / RFU, DNAJC13 / Fold change vs veh, DNAJC13 / RFU, GNAQ / Fold change vs veh, GNAQ / RFU, CDK5R1 / Fold change vs veh, CDK5R1 / RFU, ZRANB3 / Fold change vs veh, ZRANB3 / RFU, CUL4A / Fold change vs veh, CUL4A / RFU, CCNY / Fold change vs veh, CCNY / RFU, UFL1 / Fold change vs veh, UFL1 / RFU, COG3 / Fold change vs veh, COG3 / RFU, DIAPH2 / Fold change vs veh, DIAPH2 / RFU, SKA2 / Fold change vs veh, SKA2 / RFU, AFF3 / Fold change vs veh, AFF3 / RFU, LMF1 / Fold change vs veh, LMF1 / RFU, IPO11 / Fold change vs veh, IPO11 / RFU, DFFB / Fold change vs veh, DFFB / RFU, FOXP1 / Fold change vs veh, FOXP1 / RFU, CARD8 / Fold change vs veh, CARD8 / RFU, STRN3 / Fold change vs veh, STRN3 / RFU, ADK / Fold change vs veh, ADK / RFU, RASSF2 / Fold change vs veh, RASSF2 / RFU, WIPF1 / Fold change vs veh, WIPF1 / RFU, LARP1B / Fold change vs veh, LARP1B / RFU, RASA1 / Fold change vs veh, RASA1 / RFU, RB1 / Fold change vs veh, RB1 / RFU, PPFIA1 / Fold change vs veh, PPFIA1 / RFU, MAT2A / Fold change vs veh, MAT2A / RFU, CCT5 / Fold change vs veh, CCT5 / RFU, WDR92 / Fold change vs veh, WDR92 / RFU, CUX1 / Fold change vs veh, CUX1 / RFU, TTC7A / Fold change vs veh, TTC7A / RFU, TMEM135 / Fold change vs veh, TMEM135 / RFU, DEPTOR / Fold change vs veh, DEPTOR / RFU, CPM / Fold change vs veh, CPM / RFU, DNAJB6 / Fold change vs veh, DNAJB6 / RFU, CACNA2D3 / Fold change vs veh, CACNA2D3 / RFU, DTX4 / Fold change vs veh, DTX4 / RFU, TFCP2 / Fold change vs veh, TFCP2 / RFU, GMCL1 /// GMCL1P1 / Fold change vs veh, GMCL1 /// GMCL1P1 / RFU, AEBP2 / Fold change vs veh, AEBP2 / RFU, SNHG1 /// SNORD22 /// SNORD25 /// SNORD26 /// SNORD27 /// SNORD28 /// SNORD29 /// SNORD31 / Fold change vs veh, SNHG1 /// SNORD22 /// SNORD25 /// SNORD26 /// SNORD27 /// SNORD28 /// SNORD29 /// SNORD31 / Fold change (Aza/veh), C12orf56 (ProbeSet 11735607_a_at) / Fold change (ACY-1035/veh), C12orf56 (ProbeSet 11735607_a_at) / Fold change (Aza/veh), FGFR1OP (ProbeSet 11751329_s_at) / Fold change (ACY-1035/veh), FGFR1OP (ProbeSet 11751329_s_at) / Fold change (Aza/veh), VPS36 (ProbeSet 11739960_a_at) / Fold change (ACY-1035/veh), VPS36 (ProbeSet 11739960_a_at) / RFU SYPL1 (11715823_x_at) / Fold change /veh SYPL1 (11715823_x_at) / RFU IGFBP7 (11715501_s_at) / Fold change /veh IGFBP7 (11715501_s_at) / RFU REEP3 (11722064_at) / Fold change /veh REEP3 (11722064_at) / RFU IGLL1 (11728026_x_at) / Fold change /veh IGLL1 (11728026_x_at): dose or concentration left out as unconfirmed
Conditions: ProbeSet 11732306_x_at; LIST D

Nc1ncn([C@@H]2O[C@H](CO)[C@@H](O)[C@H]2O)c(=O)n1 [azacitidine]
Fold change vs veh, CREB1: 0.82
